Experimental findings from US20230322846A9, “NEUROACTIVE STEROIDS AND THEIR METHODS OF USE” (SAGE THERAPEUTICS, INC., priority 2018, published 2023) are described below.

In this experiment the target is [35S]-TBPS binding, rat brain cortical membranes. The experiment can be described thus: Steroid inhibition of [35S]-TBPS binding. The conditions noted are these: 3 nM [35S]-TBPS, in the presence of 5 mM GABA. In short, it runs like this: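 In the presence of […], compounds (DMSO 0.5% final) competed with 3 nM [35S]-TBPS for Sprague-Dawley rat cortical membranes, pH 7.4 phosphate buffer, 90 min, room temperature. Filtration and scintillation counting; specific binding defined by […]; IC50 and maximal inhibition fitted per experiment, averaged as mean ± SEM.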

Bounds are passed on as bounds.

A word on the IC50: it is the concentration at which inhibition is half-maximal. For the compound `COC[C@@]1(O)CC[C@H]2[C@H](CC[C@@H]3[C@@H]2CC[C@]2(C)[C@@H]([C@@H](C)NC(=O)c4ccc(F)cn4)CC[C@@H]32)C1` [Example 125], the IC50 fell in the range of 100 to 1000 nM.
In the case of `COC[C@@]1(O)CC[C@H]2[C@H](CC[C@@H]3[C@@H]2CC[C@]2(C)[C@@H]([C@H](C)NC(=O)c4ccc(OC(F)(F)F)cc4)CC[C@@H]32)C1` [Example 112] it was 100 to 1000 nM.
In the case of `C[C@H]([C@H]1CC[C@H]2[C@@H]3CC[C@@H]4C[C@](C)(O)CC[C@@H]4[C@H]3CC[C@]12C)N1Cc2cc(C#N)ccc2C1=O` [Example 40, 2-((R)-1-((3R,5R,8R,9R,10S,13S,14S,17S)-3-hydroxy-3,13-dimethylhexadecahydro-1H-cyclopenta[a]phenanthren-17-yl)ethyl)-1-oxoisoindoline-5-carbonitrile] it was less than 100 nM; in that of `C[C@@H](Cc1nc(C(F)(F)F)cs1)[C@H]1CC[C@H]2[C@@H]3CC[C@@H]4C[C@](C)(O)CC[C@@H]4[C@H]3CC[C@]12C` [Example 449], less than 100 nM; in that of `CC[C@@]1(O)CC[C@H]2[C@@H](CC[C@@H]3[C@@H]2CC[C@]2(C)[C@@H]([C@H](C)Cn4nnc(C)n4)CC[C@@H]32)C1` [Example 334, (3R,5S,8R,9R,10S,13S,14S,17R)-3-ethyl-13-methyl-17-((S)-1-(5-methyl-2H-tetrazol-2-yl)propan-2-yl)hexadecahydro-1H-cyclopenta[a]phenanthren-3-ol], not below 10000 nM.
In the case of `CCOC[C@@]1(O)CC[C@@]2(C)[C@H](CC[C@@H]3[C@@H]2CC[C@]2(C)[C@@H]([C@@H](C)NS(=O)(=O)c4ccc(C#N)cn4)CC[C@@H]32)C1` [Example 77, 5-cyano-N—((R)-1-((3R,5R,8R,9S,10S,13S,14S,17S)-3-(ethoxymethyl)-3-hydroxy-10,13-dimethylhexadecahydro-1H-cyclopenta[a]phenanthren-17-yl)ethyl)pyridine-2-sulfonamide] it was less than 100 nM; in that of `CCC[C@@]1(O)CC[C@H]2[C@H](CC[C@@H]3[C@@H]2CC[C@]2(C)[C@@H]([C@@H](C)Cc4ccc(C(F)(F)F)nc4)CC[C@@H]32)C1` [Example 410], 100 to 1000 nM.
In the case of `CCOC[C@@]1(O)CC[C@H]2[C@H](CC[C@@H]3[C@@H]2CC[C@]2(C)[C@@H]([C@@H](C)N4CCc5cc(C#N)ccc5C4=O)CC[C@@H]32)C1` [Example 46, 2-((R)-1-((3R,5R,8R,9R,10S,13S,14S,17S)-3-(ethoxymethyl)-3-hydroxy-13-methylhexadecahydro-1H-cyclopenta[a]phenanthren-17-yl)ethyl)-1-oxo-1,2,3,4-tetrahydroisoquinoline-6-carbonitrile], the half-inhibitory concentration (IC50) is less than 100 nM.
Then `CCC[C@@]1(O)CC[C@@]2(C)[C@H](CC[C@H]3[C@@H]4CC[C@H](C(C)Cn5cc(C#N)cn5)[C@@]4(C)CC(=O)[C@@H]32)C1` (stereo in doubt) [Example 340, 1-((R)-2-((3R,5R,8S,9S,10S,13S,14S,17R)-3-hydroxy-10,13-dimethyl-11-oxo-3-propylhexadecahydro-1H-cyclopenta[a]phenanthren-17-yl)propyl)-1H-pyrazole-4-carbonitrile], with less than 100 nM; and `Cc1cc(C#N)ccc1N[C@H](C)[C@H]1CC[C@H]2[C@@H]3CC[C@@H]4C[C@](C)(O)CC[C@@H]4[C@H]3CC[C@]12C` [Example 250], with less than 100 nM; and `C[C@@H](Cc1nccc(C#N)n1)[C@H]1CC[C@H]2[C@@H]3CC[C@@H]4C[C@](C)(O)CC[C@@H]4[C@H]3CC[C@]12C` [Example 435], with less than 100 nM.
Regarding `CCOC[C@@]1(O)CC[C@H]2[C@H](CC[C@@H]3[C@@H]2CC[C@]2(C)[C@@H]([C@@H](C)Cn4cc(C#N)cn4)CC[C@@H]32)C1` [Example 269, 1-((R)-2-((3R,5R,8R,9R,10S,13S,14S,17R)-3-(ethoxymethyl)-3-hydroxy-13-methylhexadecahydro-1H-cyclopenta[a]phenanthren-17-yl)propyl)-1H-pyrazole-4-carbonitrile], the IC50 was less than 100 nM.
In the case of `CCC[C@@]1(O)CC[C@@]2(C)[C@H](CC[C@@H]3[C@@H]2CC[C@]2(C)[C@@H]([C@@H](C)Cn4cc(C#N)cn4)CC[C@@H]32)C1` [Example 307, 1-((R)-2-((3R,5R,8R,9S,10S,13S,14S,17R)-3-hydroxy-10,13-dimethyl-3-propylhexadecahydro-1H-cyclopenta[a]phenanthren-17-yl)propyl)-1H-pyrazole-4-carbonitrile] it was less than 100 nM; in that of `CCOC[C@@]1(O)CC[C@H]2[C@H](CC[C@@H]3[C@@H]2CC[C@]2(C)[C@@H]([C@@H](C)Nc4cccnc4F)CC[C@@H]32)C1` [Example 262], less than 100 nM.
Take `COC[C@@]1(O)CC[C@H]2[C@H](CC[C@@H]3[C@@H]2CC[C@]2(C)[C@@H](CCn4ccc(C#N)n4)CC[C@@H]32)C1` [Example 87, 1-(2-((3R,5R,8R,9R,10S,13R,14S,17R)-3-hydroxy-3-(methoxymethyl)-13-methylhexadecahydro-1H-cyclopenta[a]phenanthren-17-yl)ethyl)-1H-pyrazole-3-carbonitrile]: the IC50 is less than 100 nM.
Turning to `COC[C@@]1(O)CC[C@H]2[C@@H](CC[C@@H]3[C@@H]2CC[C@]2(C)[C@@H](CCn4nnnc4C)CC[C@@H]32)C1` [Example 296, (3R,5S,8R,9R,10S,13R,14S,17R)-3-(methoxymethyl)-13-methyl-17-(2-(5-methyl-1H-tetrazol-1-yl)ethyl)hexadecahydro-1H-cyclopenta[a]phenanthren-3-ol], the IC50 is less than 100 nM.
Consider `CCOC[C@@]1(O)CC[C@H]2[C@H](CC[C@@H]3[C@@H]2CC[C@]2(C)[C@@H]([C@@H](C)Cn4ccc(C#N)n4)CC[C@@H]32)C1` [Example 288, 1-((R)-2-((3R,5R,8R,9R,10S,13S,14S,17R)-3-(ethoxymethyl)-3-hydroxy-13-methylhexadecahydro-1H-cyclopenta[a]phenanthren-17-yl)propyl)-1H-pyrazole-3-carbonitrile], for which the 50% inhibitory concentration (IC50) is less than 100 nM.
In the case of `CCC[C@@]1(O)CC[C@@]2(C)[C@H](CC[C@@H]3[C@@H]2CC[C@]2(C)[C@@H]([C@@H](C)Cn4nnc(C)n4)CC[C@@H]32)C1` [Example 313, (3R,5R,8R,9S,10S,13S,14S,17R)-10,13-dimethyl-17-((R)-1-(5-methyl-2H-tetrazol-2-yl)propan-2-yl)-3-propylhexadecahydro-1H-cyclopenta[a]phenanthren-3-ol], the IC50 is less than 100 nM.
Then `Cc1cnc(C[C@@H](C)[C@H]2CC[C@H]3[C@@H]4CC[C@@H]5C[C@](C)(O)CC[C@@H]5[C@H]4CC[C@]23C)s1` [Example 431], with 100 to 1000 nM.
